Measured values taken from US20240109864A1, “SUBSTITUTED PYRAZOLYL PIPERIDINE CARBOXYLIC ACIDS” (BAYER AKTIENGESELLSCHAFT, priority 2020, published 2024).
Where a name gives a salt, the structure may show the parent alone.

Target: T1, recombinant guanylate cyclase reporter cell line (Rattus norvegicus, UniProt P20595)
T1 construct: expressed in transfected cells
T1 sequence (P20595 1-619): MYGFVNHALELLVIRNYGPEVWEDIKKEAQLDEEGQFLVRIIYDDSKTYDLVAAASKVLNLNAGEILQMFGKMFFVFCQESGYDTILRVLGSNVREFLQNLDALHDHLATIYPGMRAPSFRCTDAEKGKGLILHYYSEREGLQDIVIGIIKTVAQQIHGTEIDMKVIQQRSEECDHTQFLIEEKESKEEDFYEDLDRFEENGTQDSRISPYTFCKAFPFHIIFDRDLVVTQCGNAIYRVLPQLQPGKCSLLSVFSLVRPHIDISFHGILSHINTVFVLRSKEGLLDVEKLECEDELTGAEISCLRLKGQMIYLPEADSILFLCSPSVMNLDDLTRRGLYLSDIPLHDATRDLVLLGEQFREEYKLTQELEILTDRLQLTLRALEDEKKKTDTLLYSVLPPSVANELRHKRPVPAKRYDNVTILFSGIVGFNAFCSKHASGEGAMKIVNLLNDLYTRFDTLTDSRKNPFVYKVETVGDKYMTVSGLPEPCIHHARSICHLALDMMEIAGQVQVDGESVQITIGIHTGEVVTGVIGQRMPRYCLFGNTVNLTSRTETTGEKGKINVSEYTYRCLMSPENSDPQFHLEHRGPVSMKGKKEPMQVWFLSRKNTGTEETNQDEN
T1 sequence (P19686 1-690 partner): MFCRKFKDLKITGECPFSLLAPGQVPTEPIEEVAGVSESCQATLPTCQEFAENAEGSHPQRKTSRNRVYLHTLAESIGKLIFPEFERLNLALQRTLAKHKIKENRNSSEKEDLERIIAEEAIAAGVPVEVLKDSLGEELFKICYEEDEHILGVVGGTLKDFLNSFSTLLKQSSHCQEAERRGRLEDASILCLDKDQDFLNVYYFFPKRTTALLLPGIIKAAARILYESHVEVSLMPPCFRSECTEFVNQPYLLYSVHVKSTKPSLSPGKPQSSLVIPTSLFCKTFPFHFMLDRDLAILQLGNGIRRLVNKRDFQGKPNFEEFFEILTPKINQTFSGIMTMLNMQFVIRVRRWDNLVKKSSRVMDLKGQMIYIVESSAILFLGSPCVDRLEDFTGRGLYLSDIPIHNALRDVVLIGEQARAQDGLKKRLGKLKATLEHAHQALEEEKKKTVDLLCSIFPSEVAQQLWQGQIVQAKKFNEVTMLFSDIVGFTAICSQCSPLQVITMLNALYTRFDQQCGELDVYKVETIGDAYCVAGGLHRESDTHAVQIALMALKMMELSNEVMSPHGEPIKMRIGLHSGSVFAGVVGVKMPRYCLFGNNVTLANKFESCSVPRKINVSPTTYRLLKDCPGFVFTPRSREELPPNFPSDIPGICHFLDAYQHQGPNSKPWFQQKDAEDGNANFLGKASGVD
Test: Effect on a recombinant guanylate cyclase reporter cell line
Type: cell-based
Conditions: in some cases mean values from individual determinations; for MEC: MEC = minimum effective concentration; for EC50: half maximal effective concentration
Protocol: The cellular activity of the compounds according to the invention was determined using a recombinant guanylate cyclase reporter cell line, as described in F. Wunder et al., Anal. Biochem. 339, 104-112 (2005).

Compound	MEC	EC50	MEC (hydrochloride)
O=C(O)c1cnn(C2CCCN(c3cc(Cl)ccc3-c3ccc(N4CCN(C(=O)OC5CC5)CC4)cc3)C2)c1C(F)(F)F (single isomer, unassigned) [Example 57, 1-[1-[5-Chloro-2-[4-[4-(cyclopropoxycarbonyl)piperazin-1-yl]phenyl]phenyl]-3-piperidyl]-5-(trifluoromethyl)pyrazole-4-carboxylic acid]	1.0 nM	6.3 nM	
O=C(O)c1cnn(C2CCCN(c3cc(Cl)ccc3-c3ccc(N4CCN(CC5CC5C(F)(F)F)CC4)cc3)C2)c1C(F)(F)F (single isomer, unassigned) [Example 33, 1-[1-[5-Chloro-2-[4-[4-[[2-(trifluoromethyl)cyclopropyl]methyl]piperazin-1-yl]phenyl]phenyl]-3-piperidyl]-5-(trifluoromethyl)pyrazole-4-carboxylic acid hydrochloride]		37.5 nM	10.0 nM
O=C(O)c1cnn(C2CCCN(c3cc(Cl)ccc3-c3ccc(N4CCN(CC(F)F)CC4)cc3)C2)c1C(F)(F)F (single isomer, unassigned) [Example 13, 1-[1-[5-Chloro-2-[4-[4-(2,2-difluoroethyl)piperazin-1-yl]phenyl]phenyl]-3-piperidyl]-5-(trifluoromethyl)pyrazole-4-carboxylic acid]	3.0 nM	54 nM	
O=C(O)c1cnn(C2CCCN(c3cc(Cl)ccc3-c3ccc(N4CCN(C(=O)C5CCC5)CC4)cc3)C2)c1C(F)(F)F (single isomer, unassigned) [Example 49, 1-[1-[5-Chloro-2-[4-[4-(cyclobutanecarbonyl)piperazin-1-yl]phenyl]phenyl]-3-piperidyl]-5-(trifluoromethyl)pyrazole-4-carboxylic acid hydrochloride]	1.0 nM	3.5 nM	
O=C(O)c1cnn(C2CCCN(c3cc(Cl)ccc3-c3ccc(N4CCN(CC5(F)CC5)CC4)cc3)C2)c1C(F)(F)F (single isomer, unassigned) [Example 9, 1-[1-[5-Chloro-2-[4-[4-[(1-fluorocyclopropyl)methyl]piperazin-1-yl]phenyl]phenyl]-3-piperidyl]-5-(trifluoromethyl)pyrazole-4-carboxylic acid hydrochloride]	0.3 nM	1.1 nM	
O=C(O)c1cnn(C2CCCN(c3cc(Cl)ccc3-c3ccc(N4CCN(CC5CC5(F)F)CC4)cc3)C2)c1C(F)(F)F (mixture of isomers) [Example 31, 1-[1-[5-Chloro-2-[4-[4-[[2,2-difluorocyclopropyl]methyl]piperazin-1-yl]phenyl]phenyl]-3-piperidyl]-5-(trifluoromethyl)pyrazole-4-carboxylic acid hydrochloride]	1.0 nM	3.8 nM	
O=C(O)c1cnn(C2CCCN(c3cc(Cl)ccc3-c3ccc(N4CCN(CC5CC56CC6)CC4)cc3)C2)c1C(F)(F)F (single isomer, unassigned) [Example 30, 1-[1-[5-Chloro-2-[4-[4-(spiro[2.2]pentan-2-ylmethyl)piperazin-1-yl]phenyl]phenyl]-3-piperidyl]-5-(trifluoromethyl)pyrazole-4-carboxylic acid hydrochloride]	3.0 nM	8.9 nM	
COC(=O)N1CCN(c2ccc(-c3ccc(Cl)cc3N3CCCC(n4ncc(C(=O)O)c4C(F)(F)F)C3)cc2)CC1 (single isomer, unassigned) [Example 54, 1-[1-[5-Chloro-2-[4-(4-methoxycarbonylpiperazin-1-yl)phenyl]phenyl]-3-piperidyl]-5-(trifluoromethyl)pyrazole-4-carboxylic acid]	3.0 nM	11.1 nM	
CC(C)(C)CN1CCN(c2ccc(-c3ccc(Cl)cc3N3CCCC(n4ncc(C(=O)O)c4C(F)(F)F)C3)cc2)CC1 (single isomer, unassigned) [Example 18, 1-[1-[5-Chloro-2-[4-[4-(2,2-dimethylpropyl)piperazin-1-yl]phenyl]phenyl]-3-piperidyl]-5-(trifluoromethyl)pyrazole-4-carboxylic acid hydrochloride]	10.0 nM	63.5 nM	
CC(C)COC(=O)N1CCN(c2ccc(-c3ccc(Cl)cc3N3CCCC(n4ncc(C(=O)O)c4C(F)(F)F)C3)cc2)CC1 (single isomer, unassigned) [Example 59, 1-[1-[5-Chloro-2-[4-(4-isobutoxycarbonylpiperazin-1-yl)phenyl]phenyl]-3-piperidyl]-5-(trifluoromethyl)pyrazole-4-carboxylic acid]	10.0 nM	40.5 nM	

Second part, the compound after the results:

MEC	EC50	MEC (hydrochloride)	Compound
1.0 nM	13.2 nM		O=C(O)c1cnn(C2CCCN(c3cc(Cl)ccc3-c3ccc(C4CN(CCC(F)(F)F)C4)cc3)C2)c1C(F)(F)F (single isomer, unassigned) [Example 78, 1-[1-[5-Chloro-2-[4-[1-(3,3,3-trifluoropropyl)azetidin-3-yl]phenyl]phenyl]-3-piperidyl]-5-(trifluoromethyl)pyrazole-4-carboxylic acid hydrochloride]
1.0 nM	4.8 nM		O=C(O)c1cnn(C2CCCN(c3cc(Cl)ccc3-c3ccc(N4CCN(CCC(F)(F)F)CC4)nc3)C2)c1C(F)(F)F (single isomer, unassigned) [Example 76, 1-[1-[5-Chloro-2-[6-[4-(3,3,3-trifluoropropyl)piperazin-1-yl]-3-pyridyl]phenyl]-3-piperidyl]-5-(trifluoromethyl)pyrazole-4-carboxylic acid hydrochloride]
3.0 nM	21 nM		O=C(O)c1cnn(C2CCCN(c3cc(Cl)ccc3-c3ccc(N4CCN(C(=O)OCC5CCC5)CC4)cc3)C2)c1C(F)(F)F (single isomer, unassigned) [Example 61, 1-[1-[5-Chloro-2-[4-[4-(cyclobutylmethoxycarbonyl)piperazin-1-yl]phenyl]phenyl]-3-piperidyl]-5-(trifluoromethyl)pyrazole-4-carboxylic acid]
10.0 nM	69.5 nM		O=C(O)c1cnn(C2CCCN(c3cc(Cl)ccc3-c3ccc(N4CCN(CC5CC5)CC4)c(F)c3)C2)c1C(F)(F)F (single isomer, unassigned) [Example 71, 1-[1-[5-Chloro-2-[4-[4-(cyclopropylmethyl)piperazin-1-yl]-3-fluoro-phenyl]phenyl]-3-piperidyl]-5-(trifluoromethyl)pyrazole-4-carboxylic acid hydrochloride]
3.0 nM	28.5 nM		CCNC(=O)N1CCN(c2ccc(-c3ccc(Cl)cc3N3CCCC(n4ncc(C(=O)O)c4C(F)(F)F)C3)cc2)CC1 (single isomer, unassigned) [Example 66, 1-[1-[5-Chloro-2-[4-[4-(ethylcarbamoyl)piperazin-1-yl]phenyl]phenyl]-3-piperidyl]-5-(trifluoromethyl)pyrazole-4-carboxylic acid]
30.0 nM	84 nM		O=C(O)c1cnn(C2CCCN(c3cc(Cl)ccc3-c3ccc(N4CCN(C(=O)OCCOC(F)(F)F)CC4)cc3)C2)c1C(F)(F)F (single isomer, unassigned) [Example 64, 1-[1-[5-Chloro-2-[4-[4-[2-(trifluoromethoxy)ethoxycarbonyl]piperazin-1-yl]phenyl]phenyl]-3-piperidyl]-5-(trifluoromethyl)pyrazole-4-carboxylic acid]
3.0 nM	36.5 nM		CCN1CCN(c2ccc(-c3ccc(Cl)cc3N3CCCC(n4ncc(C(=O)O)c4C(F)(F)F)C3)c(F)c2)CC1 (single isomer, unassigned) [Example 68, 1-[1-[5-Chloro-2-[4-(4-ethylpiperazin-1-yl)-2-fluoro-phenyl]phenyl]-3-piperidyl]-5-(trifluoromethyl)pyrazole-4-carboxylic acid hydrochloride]
